The values that follow come from EP1984014B1, “USE OF TPO PEPTIDE COMPOUNDS AND PHARMACEUTICAL COMPOSITIONS IN THE TREATMENT OF ANEMIA” (Janssen Pharmaceutica NV, priority 2006, dated 2007).

The subject of experiment [1] is mice treated with two rounds of carboplatin. In words: Example 5: two rounds of high-dose carboplatin, hematocrit and survival of mice. The experiment is classed as in vivo. The settings on record: of the mice not utilized for hematological evaluation; carboplatin alone versus combination therapy. How it is done: (§1) The effects of PEGylated TPO Compound No. 1 on mice treated with carboplatin were observed. For all examples herein, a 10 mg/ml stock solution of PEGylated TPO Compound No. 1 was prepared in sterile saline. For mixing, the preparation was placed on a gyratory shaker for 15min. at 200 rpm. This method was used to dissolve PEGylated TPO Compound No. 1 without foaming. The stock was filtered using a GV Millex (0.22um) filter. Dosing solutions were then prepared from this stock using sterile saline. The stock and dosing solutions were prepared fresh on the day of use.
Groups of mice were treated with two rounds of the chemotherapeutic agent (carboplatin) ten days apart, with each round consisting of two consecutive days of carboplatin (i.e., 70 mg/kg/day administered on Days -1 & 0 and Days 10 & 11) as delineated below. The dose of carboplatin utilized for these survival studies exceeded the maximal tolerated dose for mice (i.e., 120 mg/kg; administered as 60 mg/kg/day on 2 consecutive days). One hour following the second dose of carboplatin in each round (i.e., Day 0 and 11) mice were treated with PEGylated TPO Compound No. 1 (100ug/kg) or vehicle (sterile saline, SS, preservative-free 0.9% sodium chloride) by IV (bolus) injection as delineated below. The dose was administered on a per weight basis (100 ul/10g body weight). […]

The subject of experiment [2] is mice treated with carboplatin. The experiment in a line: Example 1: dose response of PEGylated TPO Compound No. 1 given one day after carboplatin, anemia in mice. The experiment is classed as in vivo, BALB/c mouse. How it is done:
as §1
The effect of PEGylated TPO Compound No. 1 on the duration and severity of anemia following treatment of mice with carboplatin as determined by changes in hemoglobin levels, red blood cell count and hematocrit, was observed. For this study, increasing amounts of PEGylated TPO Compound No. 1 were administered to mice one day following a carboplatin dose to characterize a possible dose-dependent effect on various red blood cell parameters.
The groups of mice were treated with either carboplatin or vehicle (Phosphate Buffered Saline, PBS) by intraperitoneal administration on Days -2 and -1 as delineated below. The optimal dose of carboplatin used to induce thrombocytopenia in the BALB/c mouse strain was previously determined to be a fractionated total dose of 120mg/kg given as two consecutive daily injections (i.e., 2x60mg/kg). One day following the second dose of carboplatin, groups of mice were treated with PEGylated TPO Compound No. 1 or vehicle (sterile saline, SS, preservative-free 0.9% sodium chloride) by IV (bolus) injection as delineated in Table 1. The dose was administered on a per-weight basis (100ul/10g body weight).
On Days 5, 7, 9 and 11, five mice in each test group were weighed and then euthanised using CO2-asphyxiation and exsanguinations via cardiac puncture. The blood samples were transferred to separate EDTA (lavender-top) microcontainers for hematologic evaluation. Groups of control mice (5) were processed on Days 5 and 11. The data are presented graphically as group means +SEM.

The test system of experiment [3] is mice treated with carboplatin. In words: Example 3: dosing 1 hour, 1 day or 4 days after carboplatin, anemia in mice. In kind it is in vivo, BALB/c mouse. How it is done: as §1
The effect of PEGylated TPO Compound No. 1 on the duration and severity of anemia following dosing regimens in which PEGylated TPO Compound No. 1 is administered at various times following the carboplatin treatment was observed. For this study, an amount of PEGylated TPO Compound No. 1 was administered to mice, one (1) hour, one (1) day or four (4) days following a carboplatin dose.
The groups of mice were treated with either carboplatin or vehicle (Phosphate Buffered Saline, PBS) by ip administration on Days -1 and 0 as delineated below. The optimal dose of carboplatin used to induce thrombocytopenia in the BALB/c mouse strain was previously determined to be a fractionated total dose of 120mg/kg given as two consecutive daily injections (i.e., 2x60mg/kg). One hour (Day 0), one day (Day 1) or four days (Day 4) following the second dose of carboplatin, groups of mice were treated with PEGylated TPO Compound No. 1 (300ug/kg) or vehicle (sterile saline, SS, preservative-free 0.9% sodium chloride) by IV (bolus) injection as delineated in Table 3. The dose was administered on a per-weight basis (100ul/10g body weight).
On Days 6, 8, 10 & 12, five mice in each test group were weighed and then euthanised using CO2-asphyxiation and exsanguinations via cardiac puncture. The blood samples were transferred to separate EDTA (lavender-top) microcontainers for hematological evaluation. Groups of control mice (5) were processed on Days 6 & 12. The data are presented graphically as group means + SEM.

For the substance “Methoxypolyethyleneglycol20000-propionyl-L-Isoleucyl-L-Glutamyl-Glycyl-L-Prolyl-L-Threonyl-L-Leucyl-L-Arginyl-L-Glutaminyl-L-2-Naphthylalanyl-L-Leucyl-L-Alanyl-L-Alanyl-L-Arginyl-Sarcosyl-Ne-(methoxypolyethyleneglycol20000-propionyl-L-Isoleucyl-L-Glutamyl-Glycyl-L-Prolyl-L-Threonyl-L-Leucyl-L-Arginyl-L-Glutaminyl-L-2-Naphthylalanyl-L-Leucyl-L-Alanyl-L-Alanyl-L-Arginyl-Sarcosyl-)-Lysinamide [PEGylated TPO Compound No. 1]”, the “mice that died between days 4 and 18” value in experiment [1] is on record as 1. Further, the “recovery of the lost body weight” value in experiment [2] (all doses tested, 11-Day study period) is “enhanced the recovery of the lost body weight”. Moreover, the “altered appearance and behavior (hunched, flaccid, soiled anogenital areas)” value in experiment [2] (appeared to be dose-dependent) was “decreased the onset, frequency and severity of these signs”. Also, the “decrease in hemoglobin levels caused by carboplatin” value in experiment [2] (carboplatin 2x60mg/kg ip Days -2 & -1, all doses (300, 1000, 3000ug/kg iv Day 0), by Day 11) was “inhibited”. The “decreases in RBC count and hematocrit associated with carboplatin treatment” value in experiment [2] (carboplatin 2x60mg/kg ip, 300-3000ug/kg iv Day 0, no statistical evaluation) is reported as “inhibited”. For the same substance, the “time of dosing after chemotherapy at which prevention of carboplatin-induced anemia is observed” value in experiment [3] (300ug/kg iv) is ≤ 24 h. Also, the “decreases in hemoglobin levels, RBC counts and hematocrits caused by carboplatin” value in experiment [3] (300ug/kg iv on Day 0 (1 hour after carboplatin treatment)) and in experiment [3] (300ug/kg iv on Day 1) was “prevented” each time. Further, the “carboplatin-induced changes in erythrocyte parameters” value in experiment [3] (300ug/kg iv on Day 4) was “failed to affect”. In experiment [3] (300ug/kg iv, no detailed analysis), the “onset, frequency or severity of signs (hunched, flaccid)” value is given as “did not appear to have a dramatic effect”. The “weight loss associated with carboplatin treatment” value in experiment [3] (administration on Day 0, Day 1 or Day 4, no statistical analysis) was “did not appear to affect the weight loss”.
